Target: T1, human ROCKα/ROCKII mix (Homo sapiens, UniProt O75116)
T1 construct: purchased Upstate Biotechnology 14-451
Assay: ROCK inhibition, fluorescence polarization (FP) assay with ROCK IMAP Kit
Format: biochemical
Procedure: The compounds were tested for inhibition of human ROCKα/ROCKII mix.
The inhibition assays were performed with a fluorescence polarization (FP) assay using the commercially available ROCK IMAP Kit from Molecular Devices (Product ID. No. R8093), essentially in accordance with the protocol supplied by the manufacturer. […] The enzyme mix ROCKα/ROCKII was obtained from Upstate Biotechnology (Product ID No 14-451).
In summary, all compounds were screened in the wells of a 384 well plate for enzymatic inhibition with concentrations varying from 100 μM to 0.3 nM using a stepwise 3 (or 2)-fold dilution.
To perform the assay, 1 μl of a solution of the compound to be tested in DMSO (at each concentration) was added to 2 μl of a solution of the enzyme in 10 mM Tris-HCl, 10 mM MgCl2, 0.1% BSA, 0.05% NaN3, pH 7.2. The final concentration of the enzyme was 2.6 nM.
After incubating for 30 minutes at RT, 2 μl of a mixture of ATP and the protein substrate in 10 mM Tris-HCl, 10 mM MgCl2, 0.1% BSA, 0.05% NaN3, pH 7.2 was added. The final concentration of the ATP was 10 μM and final concentration of protein substrate was 0.2 μM.
After incubating for 60 minutes at RT, 12 μl of the IMAP Binding Solution (mix of the IMAP Binding Buffer A (1×) and the IMAP Binding Reagent (from the ROCK IMAP kit)) was added.
The mixture thus obtained (total volume: 17 μl) was incubated for 60 minutes at RT, upon which the fluorescence polarization was measured using an automated plate reader (Perkin Elmer, Model Envision 2100-0010 HTS) with FP filters: excitation filter FITC FP 480 and emission filters FITC FP P-pol 535 and FITC FP S-pol 535 (Perkin-Elmer). The results were fitted to a curve using the XL-Fit algorithm and IC50 values were calculated for each fitted curve, again using the XL-Fit algorithm.

[1] = Table 1, compounds of Formula IV20
[2] = Table 2, compounds of Formula V20

T1 sequence (O75116 whole entry): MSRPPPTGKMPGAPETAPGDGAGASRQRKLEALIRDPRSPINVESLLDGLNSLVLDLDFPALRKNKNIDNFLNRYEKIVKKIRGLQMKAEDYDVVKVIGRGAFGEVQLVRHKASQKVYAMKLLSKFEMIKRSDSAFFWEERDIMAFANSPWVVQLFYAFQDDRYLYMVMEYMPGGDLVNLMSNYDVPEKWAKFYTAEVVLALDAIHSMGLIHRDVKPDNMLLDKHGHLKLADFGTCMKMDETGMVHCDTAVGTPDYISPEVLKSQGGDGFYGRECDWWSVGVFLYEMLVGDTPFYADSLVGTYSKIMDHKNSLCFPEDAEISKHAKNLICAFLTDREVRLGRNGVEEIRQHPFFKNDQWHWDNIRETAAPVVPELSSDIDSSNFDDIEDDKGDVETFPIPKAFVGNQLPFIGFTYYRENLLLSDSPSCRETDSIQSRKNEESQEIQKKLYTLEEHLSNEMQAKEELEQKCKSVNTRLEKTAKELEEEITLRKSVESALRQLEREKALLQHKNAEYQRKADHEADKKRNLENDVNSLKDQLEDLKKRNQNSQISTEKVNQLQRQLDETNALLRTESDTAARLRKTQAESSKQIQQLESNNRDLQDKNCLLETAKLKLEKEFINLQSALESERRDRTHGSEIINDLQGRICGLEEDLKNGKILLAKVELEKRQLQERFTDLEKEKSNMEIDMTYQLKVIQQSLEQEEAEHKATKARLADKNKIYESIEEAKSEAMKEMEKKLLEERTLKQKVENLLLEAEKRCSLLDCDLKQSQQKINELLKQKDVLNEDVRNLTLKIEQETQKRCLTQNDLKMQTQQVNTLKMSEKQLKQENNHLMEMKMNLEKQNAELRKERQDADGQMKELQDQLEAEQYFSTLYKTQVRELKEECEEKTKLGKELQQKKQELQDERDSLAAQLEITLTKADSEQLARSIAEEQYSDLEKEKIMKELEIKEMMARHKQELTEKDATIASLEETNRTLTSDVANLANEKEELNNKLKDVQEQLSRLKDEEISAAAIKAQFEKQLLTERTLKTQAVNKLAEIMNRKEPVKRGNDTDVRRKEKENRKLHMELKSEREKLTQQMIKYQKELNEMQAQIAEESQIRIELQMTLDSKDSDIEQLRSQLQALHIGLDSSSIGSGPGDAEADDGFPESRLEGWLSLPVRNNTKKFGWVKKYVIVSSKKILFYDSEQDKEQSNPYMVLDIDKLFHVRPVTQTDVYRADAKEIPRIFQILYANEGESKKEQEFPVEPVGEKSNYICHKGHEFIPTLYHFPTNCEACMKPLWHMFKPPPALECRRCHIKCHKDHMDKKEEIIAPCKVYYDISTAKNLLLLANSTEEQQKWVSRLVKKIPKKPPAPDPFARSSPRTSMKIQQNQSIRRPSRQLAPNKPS

| IC50 [1] [µM] | IC50 [2] [µM] | SMILES |
| --- | --- | --- |
|  | < 0.5 | NC(CNS(=O)(=O)Cc1ccccc1)c1ccc(C(=O)Nc2ccncc2)cc1 (stereo not drawn) [Compound 60, 4-(1-amino-2-phenylmethanesulfonylamino-ethyl)-N-pyridin-4-yl-benzamide] |
|  | < 0.5 | NC(CNS(=O)(=O)c1ccccc1)c1ccc(C(=O)Nc2ccncc2)cc1 (stereo not drawn) [Compound 61, 4-(1-amino-2-benzenesulfonylamino-ethyl)-N-pyridin-4-yl-benzamide] |
|  | < 0.5 | Cc1ccc(S(=O)(=O)NCC(N)c2ccc(C(=O)Nc3ccncc3)cc2)cc1 (stereo not drawn) [Compound 62, 4-[1-amino-2-(4-methyl-benzenesulfonylamino)-ethyl]-N-pyridin-4-yl-benzamide] |
|  | < 0.5 | Cc1cccc(S(=O)(=O)NCC(N)c2ccc(C(=O)Nc3ccncc3)cc2)c1 (stereo not drawn) [Compound 63] |
|  | < 0.5 | Cc1ccccc1S(=O)(=O)NCC(N)c1ccc(C(=O)Nc2ccncc2)cc1 (stereo not drawn) [Compound 64, 4-[1-amino-2-(2-methyl-benzenesulfonylamino)-ethyl]-N-pyridin-4-yl-benzamide] |
|  | < 0.5 | NC(CNS(=O)(=O)c1ccc(F)cc1)c1ccc(C(=O)Nc2ccncc2)cc1 (stereo not drawn) [Compound 65, 4-[1-amino-2-(4-fluoro-benzenesulfonylamino)-ethyl]-N-pyridin-4-yl-benzamide] |
|  | < 0.5 | NC(CNS(=O)(=O)c1ccccc1F)c1ccc(C(=O)Nc2ccncc2)cc1 (stereo not drawn) [Compound 66, 4-[1-amino-2-(2-fluoro-benzenesulfonylamino)-ethyl]-N-pyridin-4-yl-benzamide] |
|  | < 0.5 | NC(CNS(=O)(=O)c1ccc(Cl)cc1)c1ccc(C(=O)Nc2ccncc2)cc1 (stereo not drawn) [Compound 67, 4-[1-amino-2-(4-chloro-benzenesulfonylamino)-ethyl]-N-pyridin-4-yl-benzamide] |
|  | < 0.5 | NC(CNS(=O)(=O)c1cccc(Cl)c1)c1ccc(C(=O)Nc2ccncc2)cc1 (stereo not drawn) [Compound 68, 4-[1-amino-2-(3-chloro-benzenesulfonylamino)-ethyl]-N-pyridin-4-yl-benzamide] |
|  | < 0.5 | NC(CNS(=O)(=O)c1ccccc1Cl)c1ccc(C(=O)Nc2ccncc2)cc1 (stereo not drawn) [Compound 69, 4-[1-amino-2-(2-chloro-benzenesulfonylamino)-ethyl]-N-pyridin-4-yl-benzamide] |
|  | < 0.5 | COc1ccc(S(=O)(=O)NCC(N)c2ccc(C(=O)Nc3ccncc3)cc2)cc1 (stereo not drawn) [Compound 70, 4-[1-amino-2-(4-methoxy-benzenesulfonylamino)-ethyl]-N-pyridin-4-yl-benzamide] |
|  | < 0.5 | COc1ccc(S(=O)(=O)NCC(N)c2ccc(C(=O)Nc3ccncc3)cc2)cc1OC (stereo not drawn) [Compound 71, 4-[1-amino-2-(3,4-dimethoxy-benzenesulfonylamino)-ethyl]-N-pyridin-4-yl-benzamide] |
|  | < 0.5 | COc1ccc(OC)c(S(=O)(=O)NCC(N)c2ccc(C(=O)Nc3ccncc3)cc2)c1 (stereo not drawn) [Compound 72, 4-[1-amino-2-(2,5-dimethoxy-benzenesulfonylamino)-ethyl]-N-pyridin-4-yl-benzamide] |
|  | 0.5 to 5 | NC(CNS(=O)(=O)c1cccc(Oc2ccccc2)c1)c1ccc(C(=O)Nc2ccncc2)cc1 (stereo not drawn) [Compound 73, 4-[1-amino-2-(3-phenoxy-benzenesulfonylamino)-ethyl]-N-pyridin-4-yl-benzamide] |

Further lines, the compound ahead of its results:

| SMILES | IC50 [1] [µM] | IC50 [2] [µM] |
| --- | --- | --- |
| CC1CN(C(=O)C(N)c2ccc(C(=O)Nc3ccncc3)cc2)CC(C)O1 (stereo not drawn) [Compound 35, 4-[1-amino-2-(2,6-dimethyl-mopholin-4-yl)-2-oxo-ethyl]-N-pyridin-4-yl-benzamide] | 0.5 to 5 |  |
| NC(C(=O)N1CCCC(CO)C1)c1ccc(C(=O)Nc2ccncc2)cc1 (stereo not drawn) [Compound 36, 4-[1-amino-2-(3-hydroxymethyl-piperidin-1-yl)-2-oxo-ethyl]-N-pyridin-4-yl-benzamide] | 0.5 to 5 |  |
| NC(C(=O)NCC1CCCO1)c1ccc(C(=O)Nc2ccncc2)cc1 (stereo not drawn) [Compound 37, 4-{amino-[(tetrahydro-furan-2-ylmethyl)-carbamoyl]-methyl}-N-pyridin-4-yl-benzamide] | 0.5 to 5 |  |
| NC(C(=O)N1CCC(O)(c2ccccc2)CC1)c1ccc(C(=O)Nc2ccncc2)cc1 (stereo not drawn) [Compound 38, 4-[1-amino-2-(4-hydroxy-4-phenyl-piperidin-1-yl)-2-oxo-ethyl]-N-pyridin-4-yl-benzamide] | 0.5 to 5 |  |
| COCCNC(=O)C(N)c1ccc(C(=O)Nc2ccncc2)cc1 (stereo not drawn) [Compound 39, 4-[amino-(2-methoxy-ethylcarbamoyl)-methyl]-N-pyridin-4-yl-benzamide] | 0.5 to 5 |  |
| CS(=O)(=O)NCCNC(=O)C(N)c1ccc(C(=O)Nc2ccncc2)cc1 (stereo not drawn) [Compound 40, 4-[amino-(2-methanesulfonylamino-ethylcarbamoyl)-methyl]-N-pyridin-4-yl-benzamide] | 0.5 to 5 |  |
| CONC(=O)C(N)c1ccc(C(=O)Nc2ccncc2)cc1 (stereo not drawn) [Compound 41, 4-(amino-methoxycarbamoyl-methyl)-N-pyridin-4-yl-benzamide] | 0.5 to 5 |  |
| CN(CCO)C(=O)C(N)c1ccc(C(=O)Nc2ccncc2)cc1 (stereo not drawn) [Compound 42, 4-{amino-[(2-hydroxy-ethyl)-methyl-carbamoyl]-methyl}-N-pyridin-4-yl-benzamide] | 0.5 to 5 |  |
| COCC(C)NC(=O)C(N)c1ccc(C(=O)Nc2ccncc2)cc1 (stereo not drawn) [Compound 43, 4-[amino-(2-methoxy-1-methyl-ethylcarbamoyl)-methyl]-N-pyridin-4-yl-benzamide] | 0.5 to 5 |  |
| CN(C)CCNC(=O)C(N)c1ccc(C(=O)Nc2ccncc2)cc1 (stereo not drawn) [Compound 44] | 0.5 to 5 |  |
| NC(C(=O)NCCN1CCOCC1)c1ccc(C(=O)Nc2ccncc2)cc1 (stereo not drawn) [Compound 45, 4-[amino-(2-morpholin-4-yl-ethylcarbamoyl)-methyl]-N-pyridin-4-yl-benzamide] | 0.5 to 5 |  |
| CC(C)N1CCN(C(=O)C(N)c2ccc(C(=O)Nc3ccncc3)cc2)CC1 (stereo not drawn) [Compound 46, 4-[1-amino-2-(4-isopropyl-piperazin-1-yl)-2-oxo-ethyl]-N-pyridin-4-yl-benzamide] | 0.5 to 5 |  |
| NC(C(=O)N1CCN(c2ccccc2)CC1)c1ccc(C(=O)Nc2ccncc2)cc1 (stereo not drawn) [Compound 47, 4-[1-amino-2-oxo-2-(4-phenyl-piperzin-1-yl)-ethyl]-N-pyridin-4-yl-benzamide] | 0.5 to 5 |  |
| NC(C(=O)N1CCN(Cc2ccccc2F)CC1)c1ccc(C(=O)Nc2ccncc2)cc1 (stereo not drawn) [Compound 48, 4-{1-amino-2-[4-(2-fluoro-benzyl)-piperazin-1-yl]-2-oxo-ethyl}-N-pyridin-4-yl-benzamide] | 0.5 to 5 |  |
| NC(C(=O)N1CCN(Cc2ccc(F)cc2)CC1)c1ccc(C(=O)Nc2ccncc2)cc1 (stereo not drawn) [Compound 49, 4-{1-amino-2-[4-(4-fluoro-benzyl)-piperazin-1-yl]-2-oxo-ethyl}-N-pyridin-4-yl-benzamide] | 0.5 to 5 |  |
| COc1ccc(CN2CCN(C(=O)C(N)c3ccc(C(=O)Nc4ccncc4)cc3)CC2)cc1 (stereo not drawn) [Compound 50, 4-{1-amino-2-[4-(4-methoxy-benzyl)-piperazin-1-yl]-2-oxo-ethyl}-N-pyridin-4-yl-benzamide] | 0.5 to 5 |  |
| NC(C(=O)NC1CCN(Cc2ccccc2)CC1)c1ccc(C(=O)Nc2ccncc2)cc1 (stereo not drawn) [Compound 51, 4-{amino-[1-benzyl-piperidin-4-ylcarbamoyl]-methyl}-N-pyridin-4-yl-benzamide] | 0.5 to 5 |  |
| NC(C(=O)N1CCN(CCO)CC1)c1ccc(C(=O)Nc2ccncc2)cc1 (stereo not drawn) [Compound 52, 4-{1-amino-2-[4-(2-hydroxy-ethyl)-piperazin-1-yl]-2-oxo-ethyl}-N-pyridin-4-yl-benzamide] | 0.5 to 5 |  |
| Cc1ccc(CN2CCC(NC(=O)C(N)c3ccc(C(=O)Nc4ccncc4)cc3)CC2)s1 (stereo not drawn) [Compound 53, 4-{amino-[1-(5-methyl-thiophen-2-ylmethyl)-piperidin-4-ylcarbamoyl]-methyl}-N-pyridin-4-yl-benzamide] | 0.5 to 5 |  |
| CCCCNNC(=O)C(N)c1ccc(C(=O)Nc2ccncc2)cc1 (stereo not drawn) [Compound 54, 4-[amino-(N′-butyl-hydrazinocarbonyl)-methyl]-N-pyridin-4-yl-benzamide] | < 0.5 |  |
| CS(=O)(=O)NCC(N)c1ccc(C(=O)Nc2ccncc2)cc1 (stereo not drawn) [Compound 55, 4-(1-amino-2-methanesulfonylamino-ethyl)-N-pyridin-4-yl-benzamide] |  | < 0.5 |
| CCS(=O)(=O)NCC(N)c1ccc(C(=O)Nc2ccncc2)cc1 (stereo not drawn) [Compound 56] |  | < 0.5 |
| CCCS(=O)(=O)NCC(N)c1ccc(C(=O)Nc2ccncc2)cc1 (stereo not drawn) [Compound 57, 4-[1-amino-2-(propane-1-sulfonylamino)-ethyl]-N-pyridin-4-yl-benzamide] |  | < 0.5 |
| CCCCS(=O)(=O)NCC(N)c1ccc(C(=O)Nc2ccncc2)cc1 (stereo not drawn) [Compound 58, 4-[1-amino-2-(butane-1-sulfonylamino)-ethyl]-N-pyridin-4-yl-benzamide] |  | < 0.5 |
| CCCCCCCCS(=O)(=O)NCC(N)c1ccc(C(=O)Nc2ccncc2)cc1 (stereo not drawn) [Compound 59, 4-[1-amino-2-(octane-1-sulfonylamino)-ethyl]-N-pyridin-4-yl-benzamide] |  | 0.5 to 5 |
